These results are taken from US20200022370A1, “MICROBIOCIDAL OXADIAZOLE DERIVATIVES” (SYNGENTA PARTICIPATIONS AG, priority 2016, published 2020).

In one experiment the test system is Phakopsora pachyrhizi. As to the kind of experiment: Phakopsora pachyrhizi / soybean / leaf disc preventative (Asian soybean rust). Format: in vivo. To be noted: foliar, 200 ppm in the applied formulation, soybean leaf disks, inoculated one day after application, vs untreated, 12 to 14 days after application, read-out: disease control. The protocol:
(§1) Leaf disks or leaf segments of various plant species are cut from plants grown in a greenhouse. The cut leaf disks or segments are placed in multiwell plates (24-well format) onto water agar. The leaf disks are sprayed with a test solution before (preventative) or after (curative) inoculation. Compounds to be tested are prepared as DMSO solutions (max. 10 mg/ml) which are diluted to the appropriate concentration with 0.025% Tween20 just before spraying. The inoculated leaf disks or segments are incubated under defined conditions (temperature, relative humidity, light, etc.) according to the respective test system. A single evaluation of disease level is carried out 3 to 14 days after inoculation, depending on the pathosystem. Percent disease control relative to the untreated check leaf disks or segments is then calculated.
Example 3: Fungicidal Activity Against Phakopsora pachyrhizi/Soybean/Leaf Disc Preventative (Asian Soybean Rust)
Soybean leaf disks are placed on water agar in multiwell plates (24-well format) and sprayed with the Formulated test compound diluted in water. One day after application leaf discs are inoculated by spraying a spore suspension on the lower leaf surface. After an incubation period in a climate cabinet of 24-36 hours in darkness at 20° C. and 75% rh leaf disc are kept at 20° C. with 12 h light/day and 75% rh. The activity of a compound is assessed as percent disease control compared to untreated when an appropriate level of disease damage appears in untreated check leaf disks (12 to 14 days after application).
(§2) The following compounds at 200 ppm in the applied Formulation give at least 80% disease control in this test when compared to untreated control leaf disks under the same conditions, which show extensive disease development.

In experiment [1] the test system is Glomerella lacenarium (Colletotrichum lacenarium). Put plainly: Glomerella lacenarium (Colletotrichum lacenarium) liquid culture / cucumber / preventative (anthracnose). To be noted: 20 ppm, liquid culture in PDB, 24° C., inhibition of growth measured photometrically 3 to 4 days after application, vs untreated, read-out: disease control. Format: cell-based. The protocol:
Mycelia fragments or conidia suspensions of a fungus prepared either freshly from liquid cultures of the fungus or from cryogenic storage, are directly mixed into nutrient broth. DMSO solutions of the test compound (max. 10 mg/ml) are diluted with 0.025% Tween20 by a factor of 50 and 10 μl of this solution is pipetted into a microtiter plate (96-well format). The nutrient broth containing the fungal spores/mycelia fragments is then added to give an end concentration of the tested compound. The test plates are incubated in the dark at 24° C. and 96% relative humidity. The inhibition of fungal growth is determined photometrically after 2 to 7 days, depending on the pathosystem, and percent antifungal activity relative to the untreated check is calculated.
Example 4: Fungicidal Activity Against Glomerella lacenarium (Colletotrichum lacenarium) Liquid Culture/Cucumber/Preventative (Anthracnose)
Conidia of the fungus from cryogenic storage are directly mixed into nutrient broth (PDB-potato dextrose broth). After placing a (DMSO) solution of test compound into a microtiter plate (96-well format), the nutrient broth containing the fungal spores is added. The test plates are incubated at 24° C. and the inhibition of growth is measured photometrically 3 to 4 days after application.
The following compounds at 20 ppm in the applied Formulation give at least 80% disease control in this test when compared to untreated control under the same conditions, which show extensive disease development.

The test system of experiment [2] is Puccinia recondita f. Sp. Tritici. As to the kind of experiment: Puccinia recondita f. sp. tritici / wheat / leaf disc preventative (brown rust). Format: in vivo. To be noted: foliar, 200 ppm in the applied formulation, wheat leaf segments cv. Kanzler, inoculated 1 day after application, vs untreated, 7 to 9 days after application, read-out: disease control. The protocol:
as §1
Example 1: Fungicidal Activity Against Puccinia recondita f. Sp. Tritici/Wheat/Leaf Disc Preventative (Brown Rust)
Wheat leaf segments cv. Kanzler were placed on agar in multiwell plates (24-well format) and sprayed with the Formulated test compound diluted in water. The leaf disks were inoculated with a spore suspension of the fungus 1 day after application. The inoculated leaf segments were incubated at 19° C. and 75% relative humidity (rh) under a light regime of 12 hours light/12 hours darkness in a climate cabinet and the activity of a compound was assessed as percent disease control compared to untreated when an appropriate level of disease damage appears in untreated check leaf segments (7 to 9 days after application).
as §2

Consider `CCC(=O)Nc1ccc(CC(=O)Nc2ccc(-c3noc(C(F)(F)F)n3)cc2)cc1` [Compound 1.27, N-[4-[2-oxo-2-[4-[5-(trifluoromethyl)-1,2,4-oxadiazol-3-yl]anilino]ethyl]phenyl]propanamide], for which the pest or weed control at 200 ppm in the experiment on Phakopsora pachyrhizi was ≥ 80%.
For `COCc1nc(C)c(C(=O)Nc2ccc(-c3noc(C(F)(F)F)n3)nc2)s1` [Compound 1.51, 2-(methoxymethyl)-4-methyl-N-[6-[5-(trifluoromethyl)-1,2,4-oxadiazol-3-yl]-3-pyridyl]thiazole-5-carboxamide], the pest or weed control at 200 ppm in the experiment with Phakopsora pachyrhizi is ≥ 80%.
On to `CC(C)(C(=O)Nc1ccc(-c2noc(C(F)(F)F)n2)nc1)c1ncc(Cl)cc1Cl` [Compound 1.53, 2-(3,5-dichloro-2-pyridyl)-2-methyl-N-[6-[5-(trifluoromethyl)-1,2,4-oxadiazol-3-yl]-3-pyridyl]propanamide], for which the pest or weed control at 200 ppm in the experiment on Phakopsora pachyrhizi was ≥ 80%.
Turning to `O=C(Nc1ccc(-c2noc(C(F)(F)F)n2)cc1)C1=CCCC1` [Compound 1.81, N-[4-[5-(trifluoromethyl)-1,2,4-oxadiazol-3-yl]phenyl] cyclopentene-1-carboxamide], the pest or weed control at 200 ppm in the experiment on Phakopsora pachyrhizi was ≥ 80%. Moreover, the inhibition of growth at 20 ppm in experiment [1] was ≥ 80%.
For `CCC(CC)C(=O)Nc1ccc(-c2noc(C(F)(F)F)n2)cc1` [Compound 1.91, 2-ethyl-N-[4-[5-(trifluoromethyl)-1,2,4-oxadiazol-3-yl]phenyl]butanamide], in the experiment with Phakopsora pachyrhizi, the pest or weed control at 200 ppm is ≥ 80%. Besides, the inhibition of growth at 20 ppm in experiment [1] is ≥ 80%.
Turning to `C=CCC(=O)Nc1ccc(-c2noc(C(F)(F)F)n2)cc1` [Compound 1.94, N-[4-[5-(trifluoromethyl)-1,2,4-oxadiazol-3-yl]phenyl]but-3-enamide], in experiment [2], the pest or weed control at 200 ppm was ≥ 80%. Further, in experiment [1], the inhibition of growth at 20 ppm was ≥ 80%.
In the case of `CC(=O)OCC(=O)Nc1ccc(-c2noc(C(F)(F)F)n2)cc1` [Compound 1.95, [2-oxo-2-[4-[5-(trifluoromethyl)-1,2,4-oxadiazol-3-yl]anilino]ethyl] acetate], the pest or weed control at 200 ppm in experiment [2] was ≥ 80%. Besides, in experiment [1], the inhibition of growth at 20 ppm is ≥ 80%.
With `O=C(Nc1ccc(-c2noc(C(F)(F)F)n2)cc1)C1CCSCC1` [Compound 1.96, N-[4-[5-(trifluoromethyl)-1,2,4-oxadiazol-3-yl]phenyl] tetrahydrothiopyran-4-carboxamide], the pest or weed control at 200 ppm in experiment [2] was ≥ 80%. Besides, the inhibition of growth at 20 ppm in experiment [1] is ≥ 80%.
Turning to `O=C(CC1CC(F)(F)C1)Nc1ccc(-c2noc(C(F)(F)F)n2)cc1` [Compound 1.97, 2-(3,3-difluorocyclobutyl)-N-[4-[5-(trifluoromethyl)-1,2,4-oxadiazol-3-yl]phenyl]acetamide], in experiment [2], the pest or weed control at 200 ppm was ≥ 80%. Also, the inhibition of growth at 20 ppm in experiment [1] was ≥ 80%.
Regarding `O=C(CCCC=C(F)F)Nc1ccc(-c2noc(C(F)(F)F)n2)cc1` [Compound 1.98, 6,6-difluoro-N-[4-[5-(trifluoromethyl)-1,2,4-oxadiazol-3-yl]phenyl]hex-5-enamide], in experiment [2], the pest or weed control at 200 ppm is ≥ 80%. The inhibition of growth at 20 ppm in experiment [1] is ≥ 80%.
Take `O=C(Cc1ccccc1F)Nc1ccc(-c2noc(C(F)(F)F)n2)cc1` [Compound 1.100, 2-(2-fluorophenyl)-N-[4-[5-(trifluoromethyl)-1,2,4-oxadiazol-3-yl]phenyl]acetamide]: in experiment [2], the pest or weed control at 200 ppm is ≥ 80%. Besides, the inhibition of growth at 20 ppm in experiment [1] is ≥ 80%.
As to `CC(CO)(CCl)C(=O)Nc1ccc(-c2noc(C(F)(F)F)n2)cc1` (stereo not shown) [Compound 1.103, 2-(chloromethyl)-3-hydroxy-2-methyl-N-[4-[5-(trifluoromethyl)-1,2,4-oxadiazol-3-yl]phenyl] propanamide], the pest or weed control at 200 ppm in experiment [2] was ≥ 80%. Further, the inhibition of growth at 20 ppm in experiment [1] is ≥ 80%.
For the compound `O=C(CCc1cccnc1)Nc1ccc(-c2noc(C(F)(F)F)n2)cc1` [Compound 1.105, 3-(3-pyridyl)-N-[4-[5-(trifluoromethyl)-1,2,4-oxadiazol-3-yl]phenyl] propanamide], the pest or weed control at 200 ppm in experiment [2] is ≥ 80%. Also, the inhibition of growth at 20 ppm in experiment [1] was ≥ 80%.
Turning to `O=C1CC(C(=O)Nc2ccc(-c3noc(C(F)(F)F)n3)cc2)C1` [Compound 1.106, 3-oxo-N-[4-[5-(trifluoromethyl)-1,2,4-oxadiazol-3-yl]phenyl]cyclo-butanecarboxamide], in experiment [2], the pest or weed control at 200 ppm is ≥ 80%. The inhibition of growth at 20 ppm in experiment [1] is ≥ 80%.
In the case of `O=C(Nc1ccc(-c2noc(C(F)(F)F)n2)cc1)C1OCCO1` [Compound 1.113, N-[4-[5-(trifluoromethyl)-1,2,4-oxadiazol-3-yl]phenyl]-1,3-dioxolane-2-carboxamide], the pest or weed control at 200 ppm in experiment [2] is ≥ 80%. Also, the inhibition of growth at 20 ppm in experiment [1] was ≥ 80%.
On to `O=C(Cc1cc(C(F)(F)F)ccn1)Nc1ccc(-c2noc(C(F)(F)F)n2)cc1` [Compound 1.115, N-[4-[5-(trifluoromethyl)-1,2,4-oxadiazol-3-yl]phenyl]-2-[4-(trifluoromethyl)-2-pyridyl]acetamide], for which, in experiment [2], the pest or weed control at 200 ppm was ≥ 80%. Further, the inhibition of growth at 20 ppm in experiment [1] is ≥ 80%.
For `O=C(Nc1ccc(-c2noc(C(F)(F)F)n2)cc1)C(F)F` [Compound 1.120, 2,2-difluoro-N-[4-[5-(trifluoromethyl)-1,2,4-oxadiazol-3-yl]phenyl]acetamide], in experiment [2], the pest or weed control at 200 ppm is ≥ 80%. Besides, the inhibition of growth at 20 ppm in experiment [1] was ≥ 80%.
As for `COCCOCC(=O)Nc1ccc(-c2noc(C(F)(F)F)n2)cc1` [Compound 1.122, 2-(2-methoxyethoxy)-N-[4-[5-(trifluoromethyl)-1,2,4-oxadiazol-3-yl]phenyl]acetamide], the pest or weed control at 200 ppm in experiment [2] is ≥ 80%. Besides, the inhibition of growth at 20 ppm in experiment [1] is ≥ 80%.
Take `CN(C(=O)C1CC1(F)F)c1ccc(-c2noc(C(F)(F)F)n2)cc1` (stereo not shown) [Compound 1.133, 2,2-difluoro-N-methyl-N-[4-[5-(trifluoromethyl)-1,2,4-oxadiazol-3-yl]phenyl]cyclo-propanecarboxamide]: the pest or weed control at 200 ppm with Phakopsora pachyrhizi is ≥ 80%.
On to `CC1CC1C(=O)N(C)c1ccc(-c2noc(C(F)(F)F)n2)cc1` (stereo not shown) [Compound 1.137, N,2-dimethyl-N-[4-[5-(trifluoromethyl)-1,2,4-oxadiazol-3-yl]phenyl]cyclo-propanecarboxamide], for which the pest or weed control at 200 ppm with Phakopsora pachyrhizi is ≥ 80%. Moreover, the inhibition of growth at 20 ppm in experiment [1] was ≥ 80%.
On to `CN(C(=O)C1(C)CC1)c1ccc(-c2noc(C(F)(F)F)n2)cc1` [Compound 1.138, N,1-dimethyl-N-[4-[5-(trifluoromethyl)-1,2,4-oxadiazol-3-yl]phenyl]cyclo-propanecarboxamide], for which, in the experiment on Phakopsora pachyrhizi, the pest or weed control at 200 ppm is ≥ 80%.
Take `O=C(Nc1ccc(-c2noc(C(F)(F)F)n2)cc1)C1CCCC1` [Compound 2.6, N-[4-[5-(trifluoromethyl)-1,2,4-oxadiazol-3-yl]phenyl] cyclopentane-carboxamide]: in experiment [2], the pest or weed control at 200 ppm is ≥ 80%. Besides, the inhibition of growth at 20 ppm in experiment [1] is ≥ 80%.
`O=C(Nc1ccc(-c2noc(C(F)(F)F)n2)cc1)C1CCC1` [Compound 2.9, N-[4-[5-(trifluoromethyl)-1,2,4-oxadiazol-3-yl]phenyl] cyclobutane-carboxamide]: the pest or weed control at 200 ppm in experiment [2] is ≥ 80%. In addition, the inhibition of growth at 20 ppm in experiment [1] was ≥ 80%.
As to `CCC(=O)N(OC)c1ccc(-c2noc(C(F)(F)F)n2)cc1` [Compound 2.28, N-methoxy-N-[4-[5-(trifluoromethyl)-1,2,4-oxadiazol-3-yl]phenyl] propanamide], the pest or weed control at 200 ppm with Phakopsora pachyrhizi is ≥ 80%. Moreover, the inhibition of growth at 20 ppm in experiment [1] is ≥ 80%.
